In US8609151B2, “Treatment of erectile dysfunction and libido enhancement” (CSIR, priority 2006, dated 2013):
≈ marks a conversion by molar mass, not a printed value. Entries after “also recorded” stand apart in the source; their conditions may differ. Read-outs that look alike come from different tables or passages of the source.

What was measured:
[1] = system: Chinese hamster ovarian cells (CHO); experiment: in vitro cytotoxicity, MTT assay; settings: for IC50: Cricetulus griseus; for cytotoxicity against Chinese hamster ovarian cells: at the test concentrations
Experimental: In vitro cytotoxicity against mammalian cell line was assayed against Chinese hamster ovarian cells by the Assay Laboratory of the Department of Medicine, Division of Pharmacology, University of Cape Town, South Africa.
All samples were tested in triplicate on a single occasion. The MTT-assay was used as a calorimetric assay for cellular growth and survival, and compares well with other available assays (Mosman, Journal of Immunological Methods 65, 55-63 (1983) and Rubinstein et al., Journal of the National Cancer Institute 82, 1113-8 (1990)). The tetrazolium salt MTT was used to measure all growth and chemosensitivity.
Aqueous samples were dissolved in water and organic samples were dissolved in a methanol:water mixture (1:9) by volume. The initial concentration of stock solutions was 2 mg/ml for all samples. Samples were stored at −20° C. until use. […] Emetine was used as the positive control in all experiments. The initial concentration of emetine was 100 μg/ml, which was serially diluted in complete medium with 10-fold dilutions to give 6 concentrations, the lowest being 0.001 μg/ml. The same dilution technique was applied to all other samples with an initial concentration of 100 μg/ml to give 5 concentrations, with the lowest concentration being 0.01 μg/ml.
The 50% inhibitory concentration (IC50) values for these samples were obtained from dose-response curves, using a non-linear dose-response curve fitting analyses via GraphPad Prism v.2.01 software.

rabbit corpus cavernosum = rabbit corpus cavernosum relaxation/contraction, phenylephrine-contracted strip (MDS Pharma); assay type: cell-based; settings: for Smooth Muscle relaxation (%) at 30 μM: relative to 0.3 μM sodium nitroprusside response, significant at ≧50%; for rabbit corpus cavernosum smooth muscle relaxation: isolated compounds at test concentration
Experimental: Rabbit corpus cavernosum relaxation/contraction was measured by the MDS Pharma Laboratory. Corpus cavernosum obtained from New Zealand-derived albino male rabbits weighing 2.5-3 kg and sacrificed by CO2 overexposure was used. A strip from the basal area of the corpus cavernosal was removed and placed under 2 g tension in a 10 ml bath containing Krebs solution at pH 7.4 at 32° C. and sub-maximal isometrically recorded tonic contraction was induced by phenylephrine (3 μM).

[2] = molecular target: T1, Phosphodiesterase 5 enzyme, partially purified from human platelets (Homo sapiens, UniProt O76074); experiment: in vitro inhibition of the phosphodiesterase 5 enzyme (MDS Pharma); assay type: biochemical
T1 construct: Phosphodiesterase 5 enzyme, partially purified from human platelets, was used; tissue MDS Pharma Laboratory in Taiwan (assay performed there); host or cells: human platelets
Experimental: Inhibition of the phosphodiesterase 5 enzyme limits the hydrolysis of cyclic Guanisine MonoPhosphate (cGMP) to acyclic Guanisine MonoPhosphate (5′GMP) and thereby increases the intracellular concentrations of cGMP which results in the relaxation of the corpus cavernosum smooth muscle. When this muscle is relaxed blood flows and fills the arteries causing the penis to erect.
The assay of the inhibition of the phosphodiesterase 5 enzyme was carried out by the MDS Pharma Laboratory in Taiwan. Phosphodiesterase 5 enzyme, partially purified from human platelets, was used. Test compounds and/or vehicles were incubated with 3.5 μg enzyme and 1 μM cGMP containing 0.01 μM [^3H]cGMP in Tris buffer at pH 7.5 for 20 minutes at 30° C. The reaction was terminated by boiling for 2 minutes and the resulting GMP was converted to guanosine by addition of 10 mg/ml snake venom nucleotidase and further incubation at 30° C. for 10 minutes. Unhydrolyzed cGMP was bound to AG1-X2 resin, and remaining [^3H]guanosine in the aqueous phase was quantitated by scintillation counting. […] Since enzyme activity could change from lot to lot, the concentration used was adjusted if necessary.

[3] = system: rabbit corpus cavernosal smooth muscle; experiment: relaxation of CaCl2 pre-contracted rabbit corpus cavernosal smooth muscle strips (University of Pretoria); assay type: cell-based
Experimental: Strips (12 mm long and 1-2 mm thick) of rabbit corpus cavernosal smooth muscle were dissected and mounted in an organ-bath chamber containing Krebs-PSS solution with the following composition: […] One end of the muscle was tied to the inside bottom of the perfusion bath and the other end to a thin wire connected to a Harvard isotonic force transducer for isotonic tension measurements. Changes in isotonic tension were recorded on a computerized calibrating program. […] This was followed by perfusion with 2 ml of high CaCl2 in Krebs-PSS (17.8 mg/ml) for muscle contraction. Base-line tension was set at the point of maximal contraction following the addition of CaCl2 into the experimental bath. The extracts to be analyzed were added after a stable contraction base-line. The same procedure was repeated for the positive control, Sildenafil. The contraction/relaxation was reported relative to Sildenafil tested at 78 ng/ml.

[4] = read-out: Chinese hamster ovarian cell test IC50, MTT assay, triplicate, values ≦1.0 considered cytotoxic
[5] = read-out: Phosphodiesterase 5 enzyme inhibition (%) at 10 μM, 10 μM, significant at ≧50%

## COc1cc2c(-c3ccc4c(c3)OCO4)c3c(c(OC)c2c(OC)c1OC)COC3=O [Compound 3, 9-(1′,3′-benzodioxol-5′-yl)-4,5,6,7-tetramethoxynaphtho[2,3-c]furan-1(3H)-one]
[1]; read-out: Chinese hamster ovarian cell test IC50
  IC50: 9 µg/mL (≈ 21.2 µM)
Rabbit corpus cavernosum
  Smooth Muscle relaxation (%) at 30 μM: 62%
[2]; read-out: Phosphodiesterase 5 enzyme inhibition (%) at 10 μM
  inhibition at 10 µM: 11%

## COc1ccc(-c2c3c(c(O)c4cc5c(cc24)OCO5)COC3=O)cc1OC [Compound 5, 9-(3′,4′-dimethoxyphenyl)-4-hydroxy-6,7-methylenedioxynaphtho[2,3-c]furan-1(3H)-one]
[1]; [4]
  IC50: 28.5 µg/mL (≈ 74.9 µM)
[1]
  cytotoxicity against Chinese hamster ovarian cells: non-cytotoxic
Rabbit corpus cavernosum
  Smooth Muscle relaxation (%) at 30 μM: 75%
  rabbit corpus cavernosum smooth muscle relaxation: observed
[2]; [5]
  inhibition at 10 µM: 29%

## COc1ccc(CC2COC(=O)/C2=C\c2ccc3c(c2)OCO3)cc1OC (stereo not drawn) [Compound 6, 3-(1′,3′-benzodioxol-5′-ylmethylene)-4-(3″,4″-dimethoxybenzyl)dihydrofuran-2(5H)-one]
[1]; [4]
  IC50: > 100 µg/mL
[1]
  cytotoxicity against Chinese hamster ovarian cells: non-cytotoxic; also recorded: least toxic
Rabbit corpus cavernosum
  Smooth Muscle relaxation (%) at 30 μM: 71%
[2]; [5]
  inhibition at 10 µM: 35%

## COc1ccc(-c2c3c(c(OC)c4cc5c(cc24)OCO5)C(=O)OC3)cc1OC [Compound 7, 4-(3′,4′-dimethoxyphenyl)-9-methoxy-6,7-methylenedioxynaphtho[2,3-c]furan-1(3H)-one]
[1]; MTT assay, triplicate, values ≦1.0 considered cytotoxic
  Chinese hamster ovarian cell test IC50: >100 µg/mL
[1]
  cytotoxicity against Chinese hamster ovarian cells: non-cytotoxic; also recorded: least toxic
Rabbit corpus cavernosum
  Smooth Muscle relaxation (%) at 30 μM: 57%
  rabbit corpus cavernosum smooth muscle relaxation: observed
[2]; 10 μM, significant at ≧50%
  Phosphodiesterase 5 enzyme inhibition (%) at 10 μM: 53%
[2]; isolated compounds at test concentration
  phosphodiesterase 5 enzyme inhibition: Significant inhibition

## CC[C@H]1CN2CCc3cc(OC)c(OC)cc3[C@@H]2C[C@@H]1C[C@H]1NCCc2cc(OC)c(OC)cc21 [Emetine, reference compound]
[1]; [4]
  IC50: 0.04 µg/mL (≈ 0.0832 µM)

## CCCc1nn(C)c2c(=O)[nH]c(-c3cc(S(=O)(=O)N4CCN(C)CC4)ccc3OCC)nc12 [Viagra]
[3]; at […] 10^−2 μg/ml, footnote of Table 14, same figure as the Table 13 footnote
  relaxation: 100%
[3]; at […] 10^−5 mg/ml, positive control
  smooth muscle relaxation: Viagra showed 100% smooth muscle relaxation at 1.8 × 10^−5 mg/ml
